Each structure is given as a SMILES string.

Test [1] relates to CHOldlD/MUC1F-clone2 cells. The test is described as follows: MUC1 expression in cell lysates, immunoprecipitation and SDS-PAGE western blot. The class given is cell-based, Chinese Hamster. Conditions: 2 mM, 48 hours. Background: In western blotting, separated proteins are transferred to a membrane and probed.
In test [2] the target is T1, GalNAc-T7 (Homo sapiens, UniProt Q86SF2).
T1 construct: made in house; host or cells: High Five insect cells (baculovirus)
T1 sequence (Q86SF2 30-657 limits assumed): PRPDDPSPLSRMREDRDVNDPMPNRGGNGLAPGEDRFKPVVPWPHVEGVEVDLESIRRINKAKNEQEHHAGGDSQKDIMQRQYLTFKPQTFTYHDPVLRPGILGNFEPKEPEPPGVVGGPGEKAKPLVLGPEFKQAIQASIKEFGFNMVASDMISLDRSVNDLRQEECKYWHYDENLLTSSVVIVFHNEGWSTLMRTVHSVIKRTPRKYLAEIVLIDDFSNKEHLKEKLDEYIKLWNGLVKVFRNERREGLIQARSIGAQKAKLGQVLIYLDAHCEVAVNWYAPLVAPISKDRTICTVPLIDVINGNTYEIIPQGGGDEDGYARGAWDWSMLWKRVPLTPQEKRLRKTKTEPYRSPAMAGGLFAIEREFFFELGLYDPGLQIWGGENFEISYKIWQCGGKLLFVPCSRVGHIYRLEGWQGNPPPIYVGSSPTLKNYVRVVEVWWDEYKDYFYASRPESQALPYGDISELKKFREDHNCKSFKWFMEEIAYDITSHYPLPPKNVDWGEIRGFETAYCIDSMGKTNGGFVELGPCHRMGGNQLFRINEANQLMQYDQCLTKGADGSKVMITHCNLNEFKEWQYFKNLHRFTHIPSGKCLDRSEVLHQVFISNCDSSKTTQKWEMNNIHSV
As to the kind of experiment: Inhibition of GalNAc-T7 activity with GalNAc2-3EA2 substrate. It counts as biochemical. The settings on record: 5 mM. Here is the method: Standard reaction mixtures (50 μl final volume) contained 25 mM cocadylate (pH 7.4), 10 mM MnCl2, 0.25% Triton X-100, 200 μM UDP-[^14C]-GalNAc (2,000 cpm/nmol) (Amersham), 200-500 μM acceptor peptides. Products were quantified by scintillation counting after chromatography on Dowex-1, octadecyl silica cartridges (Bakerbond), or HPLC (PC3.2/3 or mRPC C2/C18 SC2.1/10 Pharmacia, Smart System). […] Glycopeptides were purified on Supelclean LC-18 columns (1 ml, Supelco), and the number of GalNAc residues incorporated evaluated by MALDI-TOF mass spectrometry. The enzyme sources used were semipurified as previously described by successive sequential ion-exchange chromatographies on Amberlite (IRA95, Sigma) or DEAE Sephacel (Pharmacia), S-Sepharose Fast Flow (Pharmacia), and Mini-S™ (PC 3.2/3, Pharmacia) using the Smart System (Pharmacia) (28). Secreted GalNAc-T4 was obtained from a stably transfected CHO line (CHO/GalNA-T4/21A) (8) grown in roller bottles in HAMS F12 supplemented with 10% Fetal Bovine Serum. The experiments illustrated in FIG. 1 was performed with recombinant secreted GalNAc-T4 obtained from a stably transfected CHO line (8). Experiments illustrated in FIGS. 2 and 3 were performed with secreted GalNAc-T4 expressed in High Five cells grown in serum-free medium (8). Structural analysis of glycopeptides were performed by a combination of PFPA (pentafluoropropionic acid) hydrolysis and MALDI-TOF mass spectrometry as previously described (40). Secreted GalNAc-T7 was obtained from infected High Five™ cells grown in serum-free medium (Invitrogen) in upright roller bottles shaken 140 rpm in waterbaths at 27° C. GalNAc-T7 was not purified by Mini-S as the yields from cationic chromatography were low due to its low pI (6.4).
GalNAc-T7 activity was analysed with GalNAc glycosylated glycopeptides (represented by GalNAc2-3EA2 (7)) in reactions of 25 μl containing 2.5 nmol acceptor (glyco)peptide, 40 nmol UDP-GalNAc, and purified GalNAc-T7. […]

For test [3], the target named is T2, secreted soluble GalNAc-T4 (sT4) (Homo sapiens, UniProt Q8N4A0).
T2 construct: using the GalNAc-T4-sol construct that encodes residues 32-578 inserted into pT7T3U19; 6xHis (N); thrombin cleavage site (N); T7 tag (N); made in house; host or cells: High Five insect cells (baculovirus)
The test is described as follows: Direct binding ELISA to GalNAc-MUC1 glycopeptide, competitive inhibition, sT4. On the procedure: (§1) Protein biotinylation was made as previously reported^62. The pH of 1 ml purified protein (0.3 mg/ml) in PBS was adjusted to pH 9 with 1 M NaOH and 40 μl N-hydroxy-succinimidobiotin (Sigma) dissolved in DMF (10 mg/ml) was added. The solution was mixed end-over-end for 2 hours at room temperature, and dialyzed three times against PBS and an equal volume of glycerol was added. The biotinylated proteins were stored at −20° C. in 50% glycerol until use.
(§2) Direct binding ELISA assay was developed as follows: Polystyrene microtiter plates (Maxisorb, Nunc, Denmark) were coated with peptides or enzymatically glycosylated glycopeptides in PBS overnight at 4° C. Plates were washed and blocked with 0.1% Tween20 and 0.2% BSA in PBS for 1 h at room temperature, followed by incubation with biotinylated proteins in PBS with 0.05% Tween20 for 2 h at room temperature. After four washes with PBS, plates were incubated with 1:2,000 dilution streptavidin-HRP (Sigma) in PBS for 30 min at room temperature and washed four times with PBS. Development was performed with 0.5 mg/ml o-phenylenediamine and 0.02% H2O2 at room temperature for 15 min, and reaction stopped by adding 100 μl/well of 0.5 N H2SO4. Competitive inhibition assays were done at end-point titers of GalNAc-transferase proteins with one hour preincubations with inhibitor.
(§3) In binding studies using lectins without biotinylation antibodies to the HIS-tag and the T7-tag, or in some experiments antibodies raised to GalNAc-T2 and -T4 enzymes were used to detect binding.

In test [4] the target is T3, GalNAc-T4 lectin domain (T4ld) (Homo sapiens, UniProt Q8N4A0).
T3 construct: made in house; host or cells: High Five insect cells (baculovirus, pAcGP67-A)
As to the kind of experiment: Direct binding ELISA to GalNAc-MUC1 glycopeptide, competitive inhibition, T4ld. On the procedure:
as §1, §2, §3
In general terms: ELISA stands for enzyme-linked immunosorbent assay.

Test [5] addresses T4, GalNAc-T2 lectin domain (T2ld) (Homo sapiens, UniProt Q10471).
T4 construct: made in house; host or cells: High Five insect cells (baculovirus, pAcGP67-A)
T4 sequence (Q10471 408-571): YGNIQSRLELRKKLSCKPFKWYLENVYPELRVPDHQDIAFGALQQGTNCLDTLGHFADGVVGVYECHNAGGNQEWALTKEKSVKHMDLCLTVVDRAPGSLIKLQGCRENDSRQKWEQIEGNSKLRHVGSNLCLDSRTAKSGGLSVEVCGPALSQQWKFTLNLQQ
The test is described as follows: Direct binding ELISA to GalNAc-MUC1 glycopeptide, competitive inhibition, T2ld. On the procedure:
as §1, §2, §3

T2 sequence (Q8N4A0 32-578): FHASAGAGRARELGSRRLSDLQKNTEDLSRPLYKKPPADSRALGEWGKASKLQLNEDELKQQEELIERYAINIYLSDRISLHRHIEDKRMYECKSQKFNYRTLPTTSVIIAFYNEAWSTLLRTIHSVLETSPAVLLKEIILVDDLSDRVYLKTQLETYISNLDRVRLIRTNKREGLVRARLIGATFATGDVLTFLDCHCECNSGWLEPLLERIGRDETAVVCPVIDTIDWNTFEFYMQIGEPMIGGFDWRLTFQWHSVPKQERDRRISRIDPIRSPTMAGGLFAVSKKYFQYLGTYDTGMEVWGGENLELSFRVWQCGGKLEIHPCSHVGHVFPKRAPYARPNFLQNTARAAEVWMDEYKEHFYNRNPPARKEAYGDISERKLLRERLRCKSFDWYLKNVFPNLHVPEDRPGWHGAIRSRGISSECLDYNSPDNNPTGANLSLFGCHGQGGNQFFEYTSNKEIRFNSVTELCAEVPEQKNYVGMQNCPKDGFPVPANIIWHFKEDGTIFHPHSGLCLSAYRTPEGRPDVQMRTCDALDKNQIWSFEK
T3 sequence (Q8N4A0 405-578): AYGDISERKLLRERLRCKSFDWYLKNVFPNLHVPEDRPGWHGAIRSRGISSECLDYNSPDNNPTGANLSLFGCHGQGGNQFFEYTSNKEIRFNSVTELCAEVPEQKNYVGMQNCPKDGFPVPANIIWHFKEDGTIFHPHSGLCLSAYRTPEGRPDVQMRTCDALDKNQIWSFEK

Take `CC(=O)N[C@H]1[C@@H](OCc2ccccc2)O[C@H](CO)[C@H](O)[C@@H]1O` [GalNAcα-benzyl]: the MUC1 expression entry in test [1] (IP HMFG2, blot 5E5) was “significant reduction in MUC1 expression”. For the same molecule, the “SDS-PAGE migration of MUC1 (O-glycosylation)” value in test [1] (cells grown in Gal and GalNAc, blot 5E5) is “marked shift in migration”. Besides, the “Inhibition of GalNAc-T7 activity with GalNAc2-3EA2” value in test [2] is “significantly inhibited”.
Broadly, the IC50 is the concentration at which inhibition is half-maximal. Read a high IC50 as a need for much substance. With `CC(=O)N[C@H]1[C@@H](OCc2ccccc2)O[C@H](CO)[C@@H](O)[C@@H]1O` [GlcNAcα-benzyl], the “Inhibition of GalNAc-T4 lectin binding” value in test [3] (FIG. 7, ELISA plates with GalNAc-Muc1) is listed as “no inhibition”. Also, the IC50 in test [3] (binding to GalNAc-MUC1 glycopeptide), in test [4] and in test [5] was > 100 mM in each case.

The values above are taken from patent publication US7338932B2, “Methods of modulating functions of polypeptide GalNAc-transferases and of screening test substances to find agents herefor, pharmaceutical compositions comprising such agents and the use of such agents for preparing medicaments” (Glycozym APS, priority 2000, dated 2008).
